Counter-ions that a name gives are not always drawn.

The values that follow come from paper PMC4361741 (Journal of psychopharmacology (Oxford, England), 2012).

Experiment [1] concerns μ-receptors. As to the kind of experiment: Isolated guinea-pig ileum, DAMGO concentration-response curves. Conditions: agonist at maximal doses.
Experiment [2] deals with rats. Conditions: ref Wiley et al., 2009; cited from earlier work.
Experiment [3] concerns rat. To be noted: 20mg/kg; ref Wiley et al., 2009; cited from earlier work.
Experiment [4] relates to κ-receptors. To be noted: single injection, ref Endoh et al., 1992, Jones and Holtzman; cited from earlier work.
Experiment [5] concerns Wistar rats. As to the kind of experiment: κ-agonist. The class given is in vivo. Conditions: 1 mg/kg.
Experiment [6] addresses δ-receptor (Rattus norvegicus, UniProt P33533). Put plainly: [3H]-diprenorphine competitive binding assay, C6-δ cell membranes.
Experiment [7] relates to CD-1 mice. Put plainly: Elevated-plus maze. The class given is in vivo.
The test system of experiment [8] is CD-1 mice. Put plainly: Forced swim test. It is filed as in vivo.
Experiment [9] deals with κ-receptors (Cavia porcellus, UniProt P41144). Put plainly: Isolated guinea-pig ileum, U50,488 concentration-response curves.
For experiment [10], the system named is CD-1 mice. Put plainly: Warm water tail-withdrawal test, block of U50,488-induced antinociception. Conditions: U50,488 10 mg/kg, single injection. The class given is in vivo.
Experiment [11] concerns CD-1 mice. Put plainly: Light dark box. It is filed as in vivo. To be noted: 8 and 15 d post-injection; diazepam 1 mg/kg 30 min prior.
Experiment [12] concerns CD-1 mice. As to the kind of experiment: Tail suspension test. It is filed as in vivo. To be noted: pilot studies, fluoxetine 10 mg/kg; control 6.9 ± 0.7 N.
The subject of experiment [13] is CD-1 mice. Put plainly: Sucrose consumption test. To be noted: fluoxetine 10 mg/kg, vs saline-treated controls.
The target in experiment [14] is human κ-receptor (Homo sapiens, UniProt P41145). As to the kind of experiment: [3H]-diprenorphine competitive binding assay, CHO-κ cell membranes. To be noted: from Ki values, Table 1.
Where [15] appears, read: diazepam 1 mg/kg 30 min prior to test, each test day.

Consider DAMGO, for which the “inhibition of electrically-evoked twitches” value in experiment [1] is on record as ~ 90%.
Take `Oc1ccc2c3c1O[C@H]1c4[nH]c5c(c4C[C@@]4(O)[C@@H](C2)N(CC2CC2)CC[C@]314)C[C@@]1(O)[C@H]2Cc3ccc(O)c4c3[C@@]1(CCN2CC1CC1)[C@H]5O4` [norBNI, Norbinaltorphimine]: in experiment [2], the “effect on sucrose (0.5%) consumption” value was “had no effect on sucrose (0.5%) consumption” and the “reversal of the effects of U50,488 on sucrose consumption” value is given as “did reverse the effects of U50,488”. In addition, the “duration of antidepressant-like effects in the rat FST” value in experiment [3] is given as “up to 4 wks post-injection”. Moreover, in experiment [4], the “time maximal levels maintained” value is 7 to 10 days, the “time of peak effects post-administration” value is ~ 24 h and the “time of returning to control levels” value was 3–4 weeks. In [5] (8 d post-treatment), the “reduction of U50,488-evoked diuresis” value is given as “about 30%”. For the same molecule, the “reduction of U50,488-evoked diuresis” value in [5] (15 d post-treatment) is listed as “maintained at 15 d post-treatment”. The affinity in experiment [6] corresponds to a Ki of 0.46 ± 0.09 nM. Moreover, in experiment [7] (7 d post-injection), the “EPM number of entries into the open arms” value is listed as “significantly increased” and the “EPM time spent in the open arms” value is reported as “significantly increased the time spent”. Also, the “EPM time spent in the open arms” value in experiment [7] (14 d post-injection, 1 and 10 mg/kg) is “significantly increased the time spent in the open arms”. Moreover, in experiment [8] (6 and 13 d post-injection of antagonist), the “FST time spent immobile” value is reported as “significantly decreased the time spent immobile”. Besides, the “behavioural effects in the FST still apparent, time post-injection” value in experiment [8] (single injection) is “up to 13 days post-injection”. Moreover, the “reversibility of κ-antagonist effect on washout” value in experiment [9] is recorded as “reversed on washout”. Moreover, in [9] (increasing antagonist concentrations), the “effect on U50,488 Emax” value is on record as “without significant affect on Emax”. Also, in experiment [9] (vs U50,488, n=4 tissues), the “pA2 Schild plot (+ 95% CI), κ” value is 8.30. For the same molecule, the “effect on antinociceptive effects of U50,488 (overall)” value in experiment [10] is listed as “significantly reduced the antinociceptive effects of U50,488”.
For the molecule `CN1C(=O)CN=C(c2ccccc2)c2cc(Cl)ccc21` [diazepam], in experiment [7] (setting [15]), the “EPM entries into the open arms” value is “significantly increased” and the “EPM time spent in the open arms” value is recorded as “significantly increased”. For the same molecule, in [11], the “LDB time spent in the lit compartment” value is reported as “significantly different from saline treated controls”.
The molecule `CNCCC(Oc1ccc(C(F)(F)F)cc1)c1ccccc1` (centres unmarked) [fluoxetine, fluoxetine hydrochloride] had a TST average force in experiment [12] of 7.7 ± 0.5 N. Besides, the “increase in sucrose consumption” value in [13] is 40%. Moreover, the “FST time spent immobile” value in experiment [8] (fluoxetine 10 mg/kg 30 min prior, days 6 and 13) is on record as “decreased the time spent immobile”.
For `NC(N)=Nc1ccc2[nH]c3c(c2c1)C[C@@]1(O)[C@H]2Cc4ccc(O)c5c4[C@@]1(CCN2CC1CC1)[C@H]3O5` [GNTI, 5’-guanidinonaltrindole], in [14], the “κ-selectivity vs. δ” value is reported as roughly 4.
